According to US10918741B2, “PSMA-targeting imaging agents” (THE CLEVELAND CLINIC FOUNDATION, priority 2014, dated 2021):
Entries after “also recorded” stand apart in the source; their conditions may differ. Like-named read-outs stand apart in the source and are kept apart here. One block for each molecule: values may come before it. *1 amine or outer side, *2 acyl side, *3 side chain or, on linkers, in order; H or OH if unused. Where a SMILES comes first, the peptide text is derived from it. [ ]: non-standard residue; d: D form. γGlu = O=C(O)[C@H](CCC(=O)[*:2])N[*:1]; X1 = O=C(C1CCC(CN[*:1])CC1)[*:2]; CO = O=C([*:1])[*:2]; Ahx = NCCCCCC(=O)O

Experiments:
[1] = target: T1, PSMA (Homo sapiens, UniProt Q04609); assay: Competitive binding assay; parameters: endogenous in cells; host or cells: LNCaP (endogenous PSMA, from ATCC) or PC3-PIP (retrovirally transformed PSMA-positive PC3, from Dr. Michel Sadelain)
T1 sequence (Q04609 whole entry): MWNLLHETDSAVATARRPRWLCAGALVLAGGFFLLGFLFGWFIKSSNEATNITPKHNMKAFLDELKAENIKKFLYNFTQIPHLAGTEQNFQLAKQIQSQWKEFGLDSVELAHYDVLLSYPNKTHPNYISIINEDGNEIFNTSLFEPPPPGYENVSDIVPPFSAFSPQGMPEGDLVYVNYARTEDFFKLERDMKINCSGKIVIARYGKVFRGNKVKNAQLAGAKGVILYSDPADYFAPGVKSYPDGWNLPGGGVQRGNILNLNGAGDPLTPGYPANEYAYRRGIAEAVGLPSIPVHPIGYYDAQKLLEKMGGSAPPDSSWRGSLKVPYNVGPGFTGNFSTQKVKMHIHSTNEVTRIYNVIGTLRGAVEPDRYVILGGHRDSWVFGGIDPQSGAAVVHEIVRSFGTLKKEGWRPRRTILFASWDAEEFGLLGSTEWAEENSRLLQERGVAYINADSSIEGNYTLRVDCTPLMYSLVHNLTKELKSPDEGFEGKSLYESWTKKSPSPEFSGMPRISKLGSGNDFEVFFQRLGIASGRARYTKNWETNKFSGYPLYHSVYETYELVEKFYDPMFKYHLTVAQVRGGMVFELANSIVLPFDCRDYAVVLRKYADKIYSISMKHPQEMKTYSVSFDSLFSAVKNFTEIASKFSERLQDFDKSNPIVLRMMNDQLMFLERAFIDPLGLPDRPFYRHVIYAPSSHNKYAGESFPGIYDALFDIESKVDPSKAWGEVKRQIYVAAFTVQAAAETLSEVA
Method: The prostate cancer cell line LNCaP (PSMA-positive) was obtained from American Type Culture Collection (Manassas, Va.). Retrovirally transformed PSMA positive PC3-PIP cells and transfection controlled PC3-flu cells were obtained from Dr. […] (Laboratory of Gene Transfer and Gene Expression, Gene Transfer and Somatic Cell Engineering Facility, Memorial-Sloan Kettering Cancer Center, New York, N.Y.). Cells were grown at 37° C. and 5% CO2 under a humidified atmosphere. […] The mixture was centrifuged at 3,000 g for 5 min at 4° C., then washed three times with 500 μL of cold PBS. […] The concentration required to inhibit 50% of binding was determined (IC50) by Graph Pad Prism 3.0.

[2] = Biodistribution study of [Al^18F]5; assay type: in vivo, mice; details: male, NSG, mouse, total radioactivity
Method: (§1) Positron emission tomography and biodistribution study of [Al^18F]5: Male NSG mice at least 6 weeks old were subcutaneously implanted with two human PC3-PIP (PSMA+) tumor xenographs. When one of the tumors reached 0.5 mL in volume, imaging and biodistribution studies were conducted. For imaging, 0.3-0.4 mCi of [Al^18F]5 was injected via the tail vein. The mouse was anesthetized with isoflurane and imaged at 1 hour post injection on a clinical PET/CT scanner (Biograph mCT, Siemens Molecular Imaging, Hoffman Estates, Ill.) using super-resolution sampling and iterative deconvolution processing. For the biodistribution study without imaging, 50-150 μCi of [Al^18F]5 was injected in PC3-PIP tumor bearing mice which were sacrificed at one and two hours post injection for biodistribution measurements.

[3] = system: PC3-PIP (PSMA+) tumor xenographs; assay: Biodistribution study of [Al^18F]5; assay type: in vivo, mice; details: for Biodistribution: Tumor (PC3PIP): preliminary
Method: as §1

[4] = target: T1, PSMA; details: cited from earlier work; for (per patient) lesion detection rate: 37 patients with prostate cancer; for non-PSMA related background in humans, in words / lesion detection in humans, in words: early human trials
[5] = published values, cited from earlier work; for Blood pool activity: 2 hours post injection; for liver background: at 2 hours
[6] = system: PC3-pip (PSMA-positive) and PC3-flu (PSMA-negative) tumors; assay: NIR fluorescence-guided robotic surgery (da Vinci Si); assay type: in vivo, mice
Excerpt: Mouse carcasses were operated on using a da Vinci Si Robot (Intuitive Surgical, Sunnyvale, Calif.). A portable dark box was used to minimize ambient light and to allow optimal fluorescence detection. Three robotic instruments (the novel endoscope to detect NIR fluorescence, a scissor, and a grasper) were inserted through robotic trocars positioned across the top cover of the dark box. The tumors were excised using the new robotic camera to detect the fluorescence of the PSMA-binding conjugate. All procedures were done by a single surgeon (R.S.), who had extensive experience in robotic surgery. Tumor specimens were sent for histopathological analysis to assess margin status.

[7] = system: PC3-pip (PSMA-positive) and PC3-flu (PSMA-negative) tumors; assay: Preoperative NIR imaging with the Maestro in vivo imaging system; parameters: species or system mice
Method: PC3-pip (PSMA-positive) and PC3-flu (PSMA-negative) cells were injected subcutaneously 1.0×10^6 PC3 cells with 200 µL of matrigel into each flank of 6 NOD SCID Gamma (NSG) mice. Chang et al., Cancer Res.; 59:3192-3198 (1999). After the tumors reached a size of ˜5 mm, the mice were anesthetized with isoflurane and were administered 2 or 10 nmol of PSMA-binding fluorescent conjugate via tail vein injection. Preoperative NIR imaging was performed using the Maestro in vivo imaging system (Cambridge Research and Instrumentation, Hopkinton, Mass.). The mice were imaged immediately and at 1-hour intervals after injection of the PSMA targeting fluorescent compound for up to 4 hours. The mice were killed once PSMA+ and PSMA− tumors could be visually differentiated by NIR imaging. The method used was CO2 asphyxiation followed by cervical dislocation.

[8] = blood, read-out: Biodistribution: Blood
[9] = liver, read-out: Biodistribution: Liver

- affinity for PSMA, comparison in words [1]: same affinity for PSMA as compound 4
Molecule: NC(=O)[C@H](CCCCNC(=S)Nc1ccc(CC2CN(CC(=O)O)CCN(CC(=O)O)CCN2CC(=O)O)cc1)NC(=O)[C@H](Cc1ccc(O)cc1)NC(=O)[C@H](CCC(=O)O)NC(=O)[C@H](CCC(=O)O)NC(=O)[C@H](CCC(=O)O)NC(=O)CCCCCNC(=O)CC[C@H](NC(=O)N[C@@H](CCC(=O)O)C(=O)O)C(=O)O (single isomer, unassigned) [Compound 5, E′E-Ahx-EEEYK(Bn-NOTA)-NH2]

- tissue uptake at 1 h [2, 8]: ~0.18 %ID/g
- tissue uptake at 2 h [2, 8]: 0.04 %ID/g
- tissue uptake at 2 h ([2]; bone, read-out: Biodistribution: Bone): 0.1 %ID/g
- tissue uptake at 1 h [2, 9]: ~0.4 %ID/g
- tissue uptake at 2 h [2, 9]: 0.17 %ID/g
- tissue uptake at 2 h ([2]; muscle, read-out: Biodistribution: Muscle): 0.01 %ID/g
- tissue uptake at 2 h ([2]; tumor (PC3-PIP), n = 6, preliminary, read-out: Biodistribution: Tumor (PC3PIP)): 4.6 %ID/g
- Biodistribution: Blood ([3]; 1 hour): 0.18% ± 0.09%
- Biodistribution: Bone ([3]; 1 hour): 0.39% ± 0.28%
- Biodistribution: Heart ([3]; 1 hour): 0.14% ± 0.11%
- Biodistribution: Kidney ([3]; 1 hour): 16.82% ± 5.60%
- Biodistribution: Liver ([3]; 1 hour): 0.41% ± 0.10%
- Biodistribution: Lung ([3]; 1 hour): 0.21% ± 0.05%
- Biodistribution: Muscle ([3]; 1 hour): 0.19% ± 0.12%
- Biodistribution: Small Intestine ([3]; 1 hour): 0.43% ± 0.51%
- Biodistribution: Spleen ([3]; 1 hour): 0.29% ± 0.14%
- Biodistribution: Stomach ([3]; 1 hour): 0.10% ± 0.03%
- Biodistribution: Thyroid ([3]; 1 hour): 0.11% ± 0.02%
- Biodistribution: Tumor (PC3PIP) ([3]; 1 hour, n = 4): 6.91% ± 1.44%
- Biodistribution: Heart ([3]; 2 hour): 0.04% ± 0.01%
- Biodistribution: Kidney ([3]; 2 hour): 5.96% ± 2.17%
- Biodistribution: Lung ([3]; 2 hour): 0.07% ± 0.04%
- Biodistribution: Small Intestine ([3]; 2 hour): 0.18% ± 0.02%
- Biodistribution: Spleen ([3]; 2 hour): 0.10% ± 0.04%
- Biodistribution: Stomach ([3]; 2 hour): 0.03% ± 0.02%
- Biodistribution: Thyroid ([3]; 2 hour): 0.05% ± 0.00%
- Tumor:blood ([3]; 2 hour): 115
- Tumor:bone ([3]; 2 hour): 46
- Tumor:liver ([3]; 2 hour): 27
- Tumor:muscle ([3]; 2 hour): 458
- Tumor:spleen ([3]; 2 hour): 46
- Biodistribution: Tumor (PC3PIP) ([3]; 2 hour, n = 6): 4.58% ± 0.55%
- excretion in words ([3]; mouse, in vivo): very fast renal excretion
Molecule: NC(=O)[C@H](CCCCNC(=S)Nc1ccc(CC2CN(CC(=O)O)CCN(CC(=O)O)CCN2CC(=O)O)cc1)NC(=O)[C@H](Cc1ccc(O)cc1)NC(=O)[C@H](CCC(=O)O)NC(=O)[C@H](CCC(=O)O)NC(=O)[C@H](CCC(=O)O)NC(=O)CCCCCNC(=O)CC[C@H](NC(=O)N[C@@H](CCC(=O)O)C(=O)O)C(=O)O (single isomer, unassigned) [[Al^18F]5]
- dissociation of ^18F-fluoride from the complex (from bone uptake) ([3]; mouse, in vivo): no significant dissociation of ^18F-fluoride from the complex

- IC50 ([1]; LNCaP or PC3-PIP cells, 12 nM [^3H] ligand, 1 hour at 37° C., 95% confidence intervals in parentheses): 2.2 nM
Molecule: O=C(O)CC[C@H](NC(=O)N[C@@H](CSC1CC(=O)N(CC2CCC(C(=O)NCCCCCC(=O)N[C@H](CCC(=O)O)C(=O)N[C@H](CCC(=O)O)C(=O)N[C@H](CCC(=O)O)C(=O)NCC(=O)O)CC2)C1=O)C(=O)O)C(=O)O (stereo partly shown) [Compound 1, ZJ-MCC-Ahx-dEdEdEG]
- affinity for PSMA, comparison in words [1]: affinity comparable to the parent urea ligand; also recorded: Neither compound came close to matching the affinity of RBI-1033

Molecule: O=C(O)CC[C@H](NC(=O)N[C@@H](CSC1CC(=O)N(CC2CCC(C(=O)NCCCCCC(=O)N[C@@H](Cc3ccc(O)cc3)C(=O)N[C@@H](Cc3ccc(O)cc3)C(=O)N[C@@H](Cc3ccc(O)cc3)C(=O)NCC(=O)O)CC2)C1=O)C(=O)O)C(=O)O (stereo partly shown) [Compound 2, ZJ-MCC-Ahx-YYYG]
- affinity for PSMA, comparison in words [1]: affinity comparable to the parent urea ligand; also recorded: Neither compound came close to matching the affinity of RBI-1033

- affinity for PSMA, comparison in words [1]: equivalent to compound 1
Molecule: NC(=O)[C@H](CS)NC(=O)CNC(=O)CNC(=O)CNC(=O)[C@H](Cc1ccc(O)cc1)NC(=O)CNC(=O)[C@@H](CCC(=O)O)NC(=O)[C@@H](CCC(=O)O)NC(=O)[C@@H](CCC(=O)O)NC(=O)CCCCCNC(=O)C1CCC(CNC(=O)CC[C@H](NC(=O)N[C@@H](CCC(=O)O)C(=O)O)C(=O)O)CC1 (stereo partly drawn) [Compound 3, E′E-Amc-Ahx-dEdEdEGYGGGC-NH2] ({Glu-CO-γGlu}-[X1][Ahx][dE][dE][dE]GYGGGC-NH2)

Molecule: O=C([O-])CN(CCN(CC(=O)[O-])Cc1cc(CCC(=O)NCCCCCC(=O)NCCCC[C@H](NC(=O)N[C@@H](CCC(=O)O)C(=O)O)C(=O)O)ccc1[O-])Cc1cc(CCC(=O)O)ccc1[O-].[68Ga+3].[OH3+] [Glu-NH—CO—NHLys(Ahx)-[^68Ga(HBED-CC)]]
- (per patient) lesion detection rate ([4]; at PSA <2.2 ng/ml): 60%
- (per patient) lesion detection rate ([4]; at PSA >2.2 ng/ml): 100%
- non-PSMA related background in humans, in words [4]: significant uptake in salivary glands, lacrimal glands, and liver

Molecule: O=C(O)CC[C@H](NC(=O)N[C@@H](CSCc1ccc([18F])cc1)C(=O)O)C(=O)O [^18F-DCFBC]
- Blood pool activity [5]: 0.4 % ID/g
- liver background [5]: 2.1 % ID/g
- lesion detection in humans, in words [4]: detected lymph node and bone metastases at 2 hr post injection
- non-PSMA related background in humans, in words [4]: elevated liver background and unexpected blood pool retention

Molecule: O=C(O)CC[C@H](NC(=O)N[C@@H](CCCCNC(=O)c1ccc([18F])nc1)C(=O)O)C(=O)O [^18F-DCFPyL]
- Blood pool activity [5]: 0.4 % ID/g
- liver background [5]: 2.1 % ID/g

Molecule: O=C(O)CC[C@H](NC(=O)N[C@@H](CCCCNCc1ccc([123I])cc1)C(=O)O)C(=O)O [^123I-MIP-1072]
- Blood pool activity [5]: 0.21 % ID/g
- liver background [5]: 2.17 % ID/g
- lesion detection in humans, in words [4]: detection of soft tissue and bone metastases, as well as tumors in the prostate bed
- non-PSMA related background in humans, in words [4]: significant uptake in salivary glands, lacrimal glands, and liver

Molecule: O=C(O)CC[C@H](NC(=O)N[C@@H](CCCCNC(=O)Nc1ccc([123I])cc1)C(=O)O)C(=O)O [^123I-MIP-1095]
- lesion detection in humans, in words [4]: detection of soft tissue and bone metastases, as well as tumors in the prostate bed
- non-PSMA related background in humans, in words [4]: significant uptake in salivary glands, lacrimal glands, and liver

Molecule: ZJ-MCC-dEdEdEGK(IRDye800cw)G
- mice with fluorescence detected from the PSMA positive tumors during robotic surgery ([6]; 10 nmol, 120 minutes after injection): 2 of 3
- intensity of fluorescence during robotic surgery ([6]; PSMA positive tumors): weak
- fluorescence in the PSMA negative (control) tumors ([6]; mouse, in vivo): no tumor fluorescence was identified in any of the mice
- mice with proper targeting on presurgical NIR imaging ([7]; 10 nmol): Two of the 3 mice
- preoperative NIR fluorescence imaging result in words ([7]; Maestro in vivo imaging system): strong fluorescence signal from the tracer in the right flank (PSMA positive tumor), bladder, and urethra
- time to detect peak fluorescence from the PSMA-positive tumors ([7]; first 3 mice, Maestro imaging system): 120 min
- signal intensity from the tumor ([7]; within 240 minutes): already partially decreased
